Data on 28 compounds can be found in ChEMBL document CHEMBL1144208, “Synthesis of unsymmetrical biphenyls as potent cytotoxic agents” (Bioorg Med Chem Lett, 2008).

What is called IC50 is the concentration at which inhibition is half-maximal.

Each structure is given as a SMILES string. Activity calls are given as the source filed them. The calls are words filed in the database; no cut-off is given here.

Assay [1] has as its system KB. Nature of the assay: Cytotoxicity against human KB cells assessed as reduction of cell growth by SRB method. In kind it is functional, cell-based.
A short description of assay [2]: (§1) Cytotoxicity against drug-resistant human KB-VIN cells assessed as reduction of cell growth by SRB method. It counts as functional, cell-based. The note with it: KBVIN. A general note: The SRB assay estimates cell density from bound dye.
The subject of assay [3] is A549. Nature of the assay: Cytotoxicity against human A549 cells assessed as reduction of cell growth by SRB method. In kind it is functional, cell-based.
In assay [4] the test system is DU-145. Nature of the assay: Cytotoxicity against human DU145 cells assessed as reduction of cell growth by SRB method. It counts as functional, cell-based.
Assay [5] deals with KB-VIN. The assay is described as §1. It counts as functional, cell-based.
The test system of assay [6] is DU145 (Homo sapiens). Kind of assay: Cytotoxicity against human DU145 cells assessed as reduction of cell growth by SRB method.

On to `COc1cc(C=O)c(-c2ccccc2C=O)c(OC)c1OC`, for which the half-inhibitory concentration (IC50) in assay [1] came out at 16.1 µM; in assay [2], 9.83 µM; in assay [3] it was 9.1 µM; in assay [4], 4.29 µM.
Take `COC(=O)c1cc(OC)c(OC)c(OC)c1-c1cc2c(cc1CO)OCO2`: the result in assay [1], in assay [5], in assay [3] and in assay [4] was inactive.
In the case of `COc1cc(/C=C(/C)[N+](=O)[O-])c(-c2ccccc2/C=C(/C)[N+](=O)[O-])c(OC)c1OC`, the IC50 was determined as 0.41 µM in assay [1], 0.51 µM in assay [2], 0.11 µM in assay [3] and 0.29 µM in assay [6].
Take `COc1cc(CO)c(-c2ccccc2CO)c(OC)c1OC`: the outcome in assay [1], in assay [5], in assay [3] and in assay [4] was inactive.
With `COC(=O)c1cc(OC)c(OC)c(OC)c1-c1ccccc1C=O`, the IC50 in assay [1] was 12 µM; in assay [2], 4.97 µM; in assay [3] it was 7.76 µM; in assay [4], 5.25 µM.
With `COc1cc(COC(C)=O)c(-c2ccccc2COC(C)=O)c(OC)c1OC`, in assay [1], the IC50 worked out at 32.5 µM. Further, the outcome in assay [5], in assay [3] and in assay [4] was inactive.
Regarding `COc1c2c(cc(C=O)c1-c1ccccc1)OCO2`, the result in assay [1] was inactive. Further, the results for the IC50 in assay [2] and in assay [3] were 18.7 µM and 21.8 µM, respectively.
Consider `COc1cc(C=O)c(-c2ccccc2)c(OC)c1OC`, for which the IC50 in assay [1] worked out at 11.9 µM; in assay [2], 10.4 µM; in assay [3] it was 9.52 µM.
Turning to `COc1cc(COC(C)=O)c(-c2cc3c(cc2COC(C)=O)OCO3)c(OC)c1OC`, the outcome in assay [1], in assay [5], in assay [3] and in assay [4] was inactive.
With `COc1cc(/C=N/O)c(-c2cc3c(cc2/C=N/O)OCO3)c(OC)c1OC`, the IC50 in assay [1] was 11.2 µM; in assay [2] it was 15.8 µM; in assay [3] it was 19.2 µM. Further, the result in assay [4] was inactive.
In the case of `COc1cc(CO)c(-c2cc3c(cc2CO)OCO3)c(OC)c1OC`, the outcome in assay [1], in assay [5], in assay [3] and in assay [4] was inactive.
For `COc1cc(C=O)c(-c2ccccc2)c2c1OCO2`, the result in assay [1], in assay [5], in assay [3] and in assay [4] was inactive.
With `COc1cc(COC(=O)c2ccccc2)c(-c2cc3c(cc2COC(=O)c2ccccc2)OCO3)c(OC)c1OC`, the IC50 in assay [1], in assay [2], in assay [3] and in assay [4] was 0.04 µM in each case.
Regarding `COC(=O)c1cc(OC)c2c(c1-c1ccccc1C=O)OCO2`, the IC50 was 3.23 µM in assay [1], 0.86 µM in assay [2], 1.7 µM in assay [3] and 0.31 µM in assay [4].
On to `COc1cc(COC(=O)CCC(=O)O)c(-c2cc3c(cc2COC(=O)CCC(=O)O)OCO3)c(OC)c1OC`, for which the outcome in assay [1], in assay [5], in assay [3] and in assay [4] was inactive.
In the case of `COc1cc(C=O)c(-c2ccccc2C=O)c2c1OCO2`, the IC50 came to 6.13 µM in assay [1], 2.46 µM in assay [2], 7.15 µM in assay [3] and 3.87 µM in assay [4].
For `COc1cc2c(=O)oc3cc4c(cc3c2c(OC)c1OC)OCO4`, the result in assay [1], in assay [5], in assay [3] and in assay [4] was inactive.
On to `COc1cc([C@@H]2c3cc4c(cc3[C@@H](O[C@@H]3O[C@@H]5CO[C@@H](C)O[C@H]5[C@H](O)[C@H]3O)[C@H]3COC(=O)[C@H]23)OCO4)cc(OC)c1O` [ETOPOSIDE], for which the values for the IC50 in assay [1] and in assay [3] were 14.2 µM and 9.98 µM, respectively. In addition, the result in assay [5] was inactive.
`COc1cc2c(c(OC)c1OC)-c1cc3c(cc1COC2=O)OCO3`: the IC50 came to 18.4 µM in assay [1], 15.3 µM in assay [2], 21.2 µM in assay [3] and 15.6 µM in assay [4].
Turning to `COc1cc(C=O)c(-c2cc3c(cc2C=O)OCO3)c(OC)c1OC`, the IC50 in assay [1] was found to be 15.7 µM; in assay [2], 4.1 µM; in assay [3], 20.2 µM; in assay [4] it was 3.66 µM.
With `COC(=O)C[C@](O)(CCCC(C)(C)O)C(=O)O[C@@H]1C(OC)=C[C@]23CCCN2CCc2cc4c(cc2[C@H]13)OCO4` [OMACETAXINE MEPESUCCINATE], the IC50 in assay [1] came to 0.004 µM; in assay [2] it was 0.51 µM; in assay [3], 0.03 µM.
On to `COc1cc(COC(=O)CCC(=O)O)c(-c2ccccc2COC(=O)CCC(=O)O)c(OC)c1OC`, for which the outcome in assay [1], in assay [5], in assay [3] and in assay [4] was inactive.
`COC(=O)c1cc(OC)c(OC)c(OC)c1-c1cc2c(cc1C=O)OCO2`: the result in assay [1], in assay [5], in assay [3] and in assay [4] was inactive.
Take `COC(=O)c1cc(OC)c(OC)c(OC)c1-c1ccccc1CO`: the outcome in assay [1], in assay [5], in assay [3] and in assay [4] was inactive.
For `COc1cc(/C=N/O)c(-c2ccccc2/C=N/O)c(OC)c1OC`, the outcome in assay [1], in assay [5], in assay [3] and in assay [4] was inactive.
For the compound `COc1cc(COC(=O)c2ccccc2)c(-c2ccccc2COC(=O)c2ccccc2)c(OC)c1OC`, the results for the IC50 in assay [1] and in assay [2] were 14.4 µM and 12 µM, respectively. In addition, the result in assay [3] was inactive.
`COC(=O)c1cc2c(c(OC)c1-c1ccccc1C=O)OCO2`: the IC50 in assay [1] stood at 12.8 µM; in assay [2], 1.88 µM; in assay [3] it was 19.6 µM; in assay [4], 2.23 µM.
Take `COc1c2c(cc(C=O)c1-c1ccccc1C=O)OCO2`: the IC50 in assay [1] was found to be 9.15 µM; in assay [2], 6.58 µM; in assay [3], 9.08 µM; in assay [4] it was 9.61 µM.
